Test results taken from the NIST ThermoML archive (doi:10.1016/j.jct.2015.08.014).

Conditions: Liquid; for electrical conductivity: Alternating current cell with electrodes; for viscosity: Capillary tube (Ostwald / Ubbelohde) method; for mass density: Vibrating tube method

CCCC[N+]1(C)CCCC1.N#CN=C=[N-] [1-butyl-1-methylpyrrolidinium dicyanamide]
electrical conductivity [S/m], 100 kPa
Conditions | 273.15 K | 283.15 K | 293.15 K | 298.15 K | 303.15 K | 313.15 K | 323.15 K
Frequency=0.0005 MHz | 0.522 | 0.786 | 1.122 | 1.315 | 1.525 | 1.99 | 2.525
Frequency=0.001 MHz | 0.522 | 0.786 | 1.122 | 1.316 | 1.526 | 2 | 2.526
Frequency=0.0015 MHz | 0.522 | 0.786 | 1.123 | 1.316 | 1.526 | 2 | 2.527
Frequency=0.002 MHz | 0.522 | 0.786 | 1.123 | 1.316 | 1.527 | 2 | 2.528
Frequency=0.0025 MHz | 0.522 | 0.786 | 1.123 | 1.317 | 1.527 | 2 | 2.528
Frequency=0.003 MHz | 0.522 | 0.786 | 1.123 | 1.317 | 1.527 | 2 | 2.528
Frequency=0.00347222 MHz | 0.523 | 0.786 | 1.123 | 1.317 | 1.527 | 2 | 2.528
Frequency=0.004 MHz | 0.523 | 0.786 | 1.123 | 1.317 | 1.527 | 2 | 2.529
Frequency=0.00446429 MHz | 0.523 | 0.786 | 1.123 | 1.317 | 1.527 | 2 | 2.529
Frequency=0.005 MHz | 0.523 | 0.786 | 1.123 | 1.317 | 1.527 | 2 | 2.529
Frequency=0.005454 MHz | 0.523 | 0.786 | 1.123 | 1.317 | 1.527 | 2 | 2.529
Frequency=0.006 MHz | 0.523 | 0.786 | 1.123 | 1.317 | 1.527 | 2 | 2.529
Frequency=0.00652174 MHz | 0.523 | 0.786 | 1.123 | 1.317 | 1.527 | 2 | 2.529
Frequency=0.00694444 MHz | 0.523 | 0.786 | 1.123 | 1.317 | 1.527 | 2 | 2.529
Frequency=0.0075 MHz | 0.523 | 0.786 | 1.123 | 1.318 | 1.527 | 2 | 2.529
Frequency=0.008 MHz | 0.523 | 0.786 | 1.123 | 1.318 | 1.527 | 2 | 2.529
Frequency=0.00857143 MHz | 0.523 | 0.786 | 1.123 | 1.318 | 1.527 | 2 | 2.529
Frequency=0.00892857 MHz | 0.523 | 0.786 | 1.124 | 1.318 | 1.527 | 2 | 2.529
Frequency=0.00961538 MHz | 0.523 | 0.786 | 1.124 | 1.318 | 1.527 | 2 | 2.529
Frequency=0.01 MHz | 0.523 | 0.786 | 1.124 | 1.318 | 1.527 | 2 | 2.529

101.33 kPa
Conditions | electrical conductivity [S/m] | mass density [kg/m3] | viscosity [mPa·s]
273.15 K | 0.523 | 1027.69 | 93.95
278.15 K | 0.645 | 1024.82 | 74.27
283.15 K | 0.786 | 1021.96 | 59.6
288.15 K | 0.943 | 1019.11 | 48.6
293.15 K | 1.123 | 1016.28 | 40.25
298.15 K | 1.317 | 1013.45 | 33.71
303.15 K | 1.527 | 1010.64 | 28.53
308.15 K | 1.75 | 1007.84 | 24.53
313.15 K | 2 | 1005.06 | 21.07
318.15 K | 2.25 | 1002.28 | 18.37
323.15 K | 2.529 | 999.525 | 16.15
328.15 K | – | 996.781 | –
333.15 K | – | 994.049 | –
